Values quoted from earlier work in patent US12622888B2, “Pharmaceutical composition and application thereof” (priority 2019, dated 2026).

System: infarct size of the heart
Conditions: prior art CN2011102229806, FIG. 3

CC(C)=CCC[C@](C)(O[C@@H]1O[C@H](CO)[C@@H](O)[C@H](O)[C@H]1O)[C@H]1CC[C@]2(C)[C@@H]1[C@H](O)C[C@@H]1[C@@]3(C)CC[C@H](O)C(C)(C)[C@@H]3[C@@H](O[C@@H]3O[C@H](CO)[C@@H](O)[C@H](O)[C@H]3O)C[C@]12C [ginsenoside Rg1]
rank order of the effect on reducing the infarct size: salvianolic acid B <ginsenoside Rg1<<salvianolic acid B: ginsenoside Rg1=2:5 group

O=C(/C=C/c1ccc(O)c2c1[C@H](C(=O)O[C@H](Cc1ccc(O)c(O)c1)C(=O)O)[C@@H](c1ccc(O)c(O)c1)O2)O[C@H](Cc1ccc(O)c(O)c1)C(=O)O [salvianolic acid B]
rank order of the effect on reducing the infarct size: salvianolic acid B <ginsenoside Rg1<<salvianolic acid B: ginsenoside Rg1=2:5 group
